Each structure is given as a SMILES string. Bounds are passed on as bounds.

The assay can be described thus: Cytotoxicity against chicken HD11 cells assessed as cell viability after 24 hrs by MTS assay. Type of assay: ADME, cell-based. Conditions: Gallus gallus, HD11, 24 h.
For `C=C1C(=O)O[C@H]2C[C@H](C)[C@@H]3CC[C@@]4(C)O[C@@]34C[C@H]12`, the half-maximal inhibitory concentration (IC50) is > 30 µM.

On to `C=C1C[C@H](O)C[C@]2(C)C[C@H]3OC(=O)[C@@H](C)[C@H]3C[C@@H]12`, for which the IC50 was > 30 µM.

Regarding `C=C1C(=O)O[C@@H]2/C=C(\C)CC[C@H]3O[C@]3(COC(C)=O)C[C@@H](OC(=O)C3(C)OC3C)[C@@H]12` (stereo partly drawn), the IC50 is 25.5 µM.

`C=C1C(=O)O[C@@H]2/C=C(/C)[C@@H](OC(C)=O)C[C@H]3O[C@]3(O)C[C@@H](OC(=O)/C(C)=C\C)[C@@H]12`: the IC50 was > 30 µM.

For `C=C1C(=O)O[C@@H]2/C=C(/CO)C[C@H](O)/C=C(/C(=O)OC)[C@@H](OC(C)=O)[C@@H](OC(=O)C(C)C)[C@@H]12`, the IC50 was determined as 24.8 µM.

Regarding `C=C1C(=O)O[C@H]2[C@H]1[C@H](OC(=O)[C@]1(C)O[C@@H]1C)[C@@H](OC(C)=O)/C(C(=O)OC)=C\C=C/[C@@]1(C)O[C@H]21`, the IC50 worked out at 28 µM.

In the case of `C=C1C(=O)O[C@@H]2/C=C(\C)CC/C=C(/C(=O)OC)[C@H](OC(C)=O)[C@@H](OC(=O)C(C)(O)C(C)O)[C@@H]12` (stereo partly drawn), the IC50 is > 30 µM.

`C=C1C[C@H]2OC(=O)C(=C)[C@@H]2[C@H](OC(=O)C(C)C)C[C@@]2(C)OC1=CC2=O`: the IC50 amounted to 25.2 µM.

In the case of `C=C(C)C(=O)O[C@@H]1C[C@@]2(C)OC(=CC2=O)C(=C)C[C@H]2OC(=O)C(=C)[C@H]12`, the IC50 was determined as 10.4 µM.

On to `C=C1C[C@H]2OC(=O)C(=C)[C@@H]2[C@H](OC(=O)/C(C)=C/C)C[C@@]2(C)OC1=CC2=O`, for which the concentration for half-maximal inhibition (IC50) stood at 12.1 µM.

For the molecule `C=C1C(=O)O[C@@H]2C[C@H](C)C(/C=C/C(C)=O)=CC[C@H]12`, the IC50 is > 30 µM.

With `C=C1C(=O)O[C@@H]2C[C@H](C)[C@]3(/C=C/C(C)=O)O[C@@H]3C[C@H]12`, the IC50 was > 30 µM.

As for `C=C1C(=O)O[C@@H]2C[C@H](C)[C@@]3(O)C=C(C(C)=O)[C@@]4(O[C@@H]3C[C@H]12)C(=O)O[C@H]1C[C@@H](C)C(/C=C/C(C)=O)=CC[C@H]14`, the IC50 is > 30 µM.

For the molecule `C=C1C(=O)O[C@@H]2C[C@H](C)[C@@]3(O)C=C(C(C)=O)[C@@]4(O[C@@H]3C[C@H]12)C(=O)O[C@H]1C[C@@H](C)[C@]2(/C=C/C(C)=O)O[C@@H]2C[C@H]14`, the IC50 was > 30 µM.

`C=C1C(=O)O[C@@H]2[C@H]3O[C@]3(C)CC/C=C(\C)[C@@H](OC(=O)CC3(C)OC3C)C[C@@H]12` (stereo partly drawn): the IC50 was 22.2 µM.

Regarding `C=C1C(=O)O[C@H]2[C@H]1[C@H](OC(C)=O)C/C(C)=C/CC[C@@]1(C)O[C@@H]21`, the IC50 is > 30 µM.

Regarding `C=C1C(=O)O[C@@H]2/C=C(\C)CC[C@H]3O[C@]3(CO)C[C@@H](OC(=O)C3(C)OC3C)[C@@H]12` (stereo partly drawn), the IC50 is > 30 µM.

Regarding `C=C1C(=O)O[C@@H]2C[C@@H](C)[C@@H]3[C@@H](OC(C)=O)C[C@@H](OC(C)=O)[C@@]3(C)[C@@H](OC(C)=O)[C@H]12`, the concentration for half-maximal inhibition (IC50) is > 30 µM.

Regarding `C=C1C(=O)O[C@@H]2C[C@@H](C)[C@@H]3[C@@H](OC(C)=O)C[C@@H](OC(C)=O)[C@@]3(C)C[C@H]12`, the IC50 is > 30 µM.

Turning to `C=C1C(=O)O[C@@H]2C[C@@H](C)[C@@H]3[C@@H](OC(C)=O)C[C@@H](O)[C@@]3(OC(C)=O)C[C@H]12`, the IC50 was > 30 µM.

Take `C=C1C(=O)O[C@@H]2C[C@@H](C)[C@@H]3CCC(=O)[C@@]3(C)C[C@H]12`: the IC50 was > 30 µM.

Take `C=C1C(=O)O[C@@H]2C[C@@H](C)[C@@H]3[C@@H](OC(C)=O)C[C@@H](O)[C@@]3(C)C[C@H]12`: the IC50 is > 30 µM.

On to `CC(=O)O[C@H]1[C@@H]2[C@H](C)C(=O)O[C@@H]2C[C@@H](C)[C@@H]2C=CC(=O)[C@]21C`, for which the IC50 turned out to be 21 µM.

Turning to `C=C1C(=O)O[C@@H]2C3O[C@]3(C)CC/C=C(\C)CC[C@@H]12` (stereo partly drawn), the IC50 is > 30 µM.

As to `CC(C)CC(=O)O[C@H]1[C@@H]2[C@H](C)C(=O)O[C@@H]2C[C@@H](C)[C@@H]2C=CC(=O)[C@]21C`, the IC50 was > 30 µM.

In the case of `C=C1C(=O)O[C@@H]2C[C@@H](C)[C@@H]3[C@@H](O)C[C@@H](OC(=O)/C(C)=C/C)[C@@]3(C)[C@@H](O)[C@H]12`, the IC50 is > 30 µM.

As for `C=C1C(=O)O[C@@H]2[C@H]3O[C@]3(C)CC/C=C(\C)[C@@H](OC(=O)C(C)C(C)O)C[C@@H]12` (stereo partly drawn), the IC50 is > 30 µM.

Turning to `C=C1C(=O)O[C@@H]2[C@H]3O[C@]3(C)CC/C=C(\C)[C@@H](OC(=O)CC(C)(C)O)C[C@@H]12`, the concentration for half-maximal inhibition (IC50) was > 30 µM.

Turning to `C=C1C(=O)O[C@@H]2C[C@@H](C)[C@@H]3[C@@H](O)C[C@@H](O)[C@@]3(C)C[C@H]12`, the IC50 is > 30 µM.

With `C=C1C(=O)O[C@@H]2C[C@@]3(C)CC(=O)C[C@H](C)C3=C[C@H]12` [2-OXOALANTOLACTONE], the IC50 is > 30 µM.

Regarding `C/C1=C\CC[C@@]2(C)O[C@@H]2[C@H]2OC(=O)[C@@H](C)[C@@H]2CC1` [11BETA,13-DIHYDRO-PARTHENOLIDE], the IC50 is > 30 µM.

On to `C=C1C(=O)O[C@@H]2C[C@@H](C)[C@@H]3C=CC(=O)[C@@]3(C)[C@@H](OC(C)=O)[C@H]12` [ANGUSTIBALIN], for which the IC50 was 7.34 µM.

For the molecule `C=C1C(=O)O[C@@H]2[C@H]3C(C)=CC[C@@]34O[C@@]4(C)CC[C@@H]12` [ARGLABIN], the IC50 is > 30 µM.

For `C=C1C(=O)O[C@@H]2C[C@@H](C)C(=O)C/C=C(\C)CC[C@@H]12` [ARGOLIDE], the IC50 was > 30 µM.

For `C=C1C(=O)O[C@@H]2C[C@@H](C)[C@@H]3[C@@H](O)CC(=O)[C@@]3(C)[C@@H](OC(=O)/C(C)=C/C)[C@H]12` [ARNIFOLIN], the IC50 was > 30 µM.

As to `C=C1C(=O)O[C@@H]2/C=C(/CO)C3=CC(=O)[C@@](C)(C[C@@H](OC(=O)/C(C)=C/C)[C@@H]12)O3` [BUDLEIN A], the IC50 was found to be 9 µM.

With `C=C1C(=O)O[C@@H]2C[C@]3(C)[C@@H](CCC(C)=O)[C@]3(C)C[C@H]12` [CARABRONE], the IC50 is > 30 µM.

As to `C=C1C(=O)O[C@@H]2C[C@@H](C)[C@@H]3[C@@H](OC(C)=O)C[C@@H](O)[C@@]3(C)[C@@H](O)[C@H]12` [CHAMISSONOLIDE], the IC50 is > 30 µM.

Regarding `C=C1C(=O)O[C@@H]2/C=C(\CO)CC/C=C(\C)C[C@H](OC(=O)C(=C)[C@H](O)CO)[C@@H]12` [CNICIN], the IC50 is > 30 µM.

Regarding `C=C1C(=O)O[C@@H]2/C=C(\C)CC/C=C(\C)CC[C@@H]12` [COSTUNOLIDE], the IC50 was > 30 µM.

`C=C1CC[C@H]2C(=C)CC[C@H]3C(=C)C(=O)O[C@@H]3[C@@H]12` [DEHYDROCOSTUSLACTONE]: the IC50 is > 30 µM.

`C=C1C(=O)O[C@@H]2[C@H]3C(C)=CC[C@H](O)[C@]3(C)CC[C@@H]12` [DOUGLANIN]: the IC50 is > 30 µM.

Turning to `C=C1C(=O)O[C@H]2[C@H]1[C@H](OC(=O)[C@@]1(C)O[C@H]1C)[C@@H](OC(C)=O)/C(C(=O)OC)=C\CC[C@@]1(C)O[C@H]21` [ENHYDRIN], the IC50 was 7.49 µM.

As for `C=C1C(=O)O[C@@H]2/C=C(/C)[C@@H](O)C[C@H]3O[C@]3(C)C[C@@H](OC(=O)/C(C)=C\C)[C@@H]12` [EPOXYNOBILIN], the IC50 was > 30 µM.

With `C=C(C)C(=O)O[C@H]1C[C@@]2(C)OC(=CC2=O)/C(CO)=C\[C@H]2OC(=O)C(=C)[C@H]12` [GOIAZENSOLIDE], the half-maximal inhibitory concentration (IC50) is 10.1 µM.

Consider `C=C1C(=O)O[C@@H]2C[C@@H](C)[C@@H]3C=CC(=O)[C@@]3(C)[C@@H](OC(=O)C(C)C)[C@H]12` [HELENALINISOBUTYRATE], for which the IC50 was > 30 µM.

On to `C=C1C(=O)O[C@@H]2C[C@@H](C)[C@@H]3C=CC(=O)[C@@]3(C)[C@@H](O)[C@H]12` [HELENALIN], for which the IC50 is 21.1 µM.

`C=C1C(=O)O[C@@H]2C[C@@]3(C)CCC[C@H](C)C3=C[C@H]12` [HELENINE]: the IC50 was > 30 µM.

For the molecule `C=C1C(=O)O[C@@H]2C[C@@]3(C)CCCC(=C)[C@@H]3C[C@H]12` [ISOALANTOLACTONE], the IC50 is > 30 µM.

As for `C=C1C(=O)O[C@@H]2C[C@@]3(C)C[C@@H](O)CC(=C)[C@@H]3C[C@H]12` [IVALIN], the IC50 is > 30 µM.

As to `C=C1C(=O)O[C@H]2C[C@@H](C)[C@@H]3C=CC(=O)[C@@]3(C)[C@H](O)[C@H]12` [MEXICANIN I], the IC50 turned out to be 21.1 µM.

Take `C=C1C(=O)O[C@@H]2/C=C(/C)[C@@H](O)C/C=C(\C)C[C@H](OC(=O)/C(C)=C\C)[C@@H]12` [NOBILIN]: the IC50 is > 30 µM.

For `C=C(CO)C(=O)O[C@H]1C/C(C)=C\CC/C(CO)=C\[C@H]2OC(=O)C(=C)[C@H]12` [ONOPORDOPICRIN], the IC50 was > 30 µM.

Consider `C=C1C(=O)O[C@@H]2C[C@H](C)[C@]3(O)CCC(=O)[C@@]3(C)C[C@H]12` [PERUVIN], for which the IC50 was > 30 µM.

Consider `C=C1C(=O)O[C@@H]2[C@H]1CC[C@H](C)[C@]1(CCC(=O)O1)[C@@]2(C)O` [PSILOSTACHYIN A], for which the IC50 was > 30 µM.

Regarding `C=C1C(=O)O[C@@H]2/C=C(/C)[C@@H](O)C[C@H]3O[C@]3(COC(C)=O)C[C@@H](OC(=O)/C(C)=C\C)[C@@H]12` [ROTUNDIN], the IC50 was > 30 µM.

On to `C=C1C(=O)O[C@@H]2/C=C(/C)C(=O)/C=C/[C@](C)(O)C[C@@H](OC(=O)C(C)C)[C@@H]12` [TAGITININ C], for which the IC50 was 30.9 µM.

In the case of `C=C1C(=O)O[C@@H]2/C=C(\C)CC/C=C(/C(=O)OC)[C@H](OC(C)=O)[C@@H](OC(=O)[C@]3(C)O[C@@H]3C)[C@@H]12` [UVEDALIN], the IC50 was 11.4 µM.

For the origin of these results see ChEMBL document CHEMBL2380234, “Natural sesquiterpene lactones as inhibitors of Myb-dependent gene expression: structure-activity relationships” (Eur J Med Chem, 2013).
